Where a chain is given by its changes, count along the chain named. Where “and” joins values, the source holds several entries; their conditions need not be identical. Equal entries are not always repeated.
Columns and labels:
wildtype mouse 5-HT3ASR = biological target: T1, wildtype mouse 5-HT3ASR (Mus musculus, UniProt P23979); experiment: [^3H]granisetron saturation binding, wildtype receptor
T1 sequence (P23979 24-483 isoform P23979-2 limits assumed): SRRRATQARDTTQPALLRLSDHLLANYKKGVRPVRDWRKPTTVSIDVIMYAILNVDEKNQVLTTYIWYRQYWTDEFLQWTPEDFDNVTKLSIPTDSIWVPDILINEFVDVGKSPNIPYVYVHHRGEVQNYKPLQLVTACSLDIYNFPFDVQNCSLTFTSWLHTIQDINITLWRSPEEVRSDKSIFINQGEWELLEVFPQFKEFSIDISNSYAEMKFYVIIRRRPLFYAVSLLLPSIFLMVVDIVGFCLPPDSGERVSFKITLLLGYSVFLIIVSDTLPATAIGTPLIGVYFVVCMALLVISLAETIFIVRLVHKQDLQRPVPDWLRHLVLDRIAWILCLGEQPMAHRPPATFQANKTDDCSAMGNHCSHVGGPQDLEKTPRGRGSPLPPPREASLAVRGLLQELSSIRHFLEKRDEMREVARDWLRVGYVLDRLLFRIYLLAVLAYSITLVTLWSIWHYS

[1] = biological target: T2, V141A mutant mouse 5-HT3ASR (Mus musculus, UniProt P23979, V142A); experiment: [^3H]granisetron saturation binding, V141A receptor; conditions: ± SE
T2 sequence (P23979 24-483 isoform P23979-2 V142A): T1 sequence (P23979 24-483 isoform P23979-2 limits assumed) with V119A

[2] = biological target: T3, V143A mutant mouse 5-HT3ASR (Mus musculus, UniProt P23979, V144A); experiment: [^3H]granisetron saturation binding, V143A receptor; conditions: ± SE
T3 sequence (P23979 24-483 isoform P23979-2 V144A): T1 sequence (P23979 24-483 isoform P23979-2 limits assumed) with V121A

[3] = biological target: T4, Q150A mutant mouse 5-HT3ASR (Mus musculus, UniProt P23979, Q151A); experiment: [^3H]granisetron saturation binding, Q150A receptor; conditions: ± SE
T4 sequence (P23979 24-483 isoform P23979-2 Q151A): T1 sequence (P23979 24-483 isoform P23979-2 limits assumed) with Q128A

[4] = biological target: T5, K153A mutant mouse 5-HT3ASR (Mus musculus, UniProt P23979, K154A); experiment: [^3H]granisetron saturation binding, K153A receptor; conditions: ± SE
T5 sequence (P23979 24-483 isoform P23979-2 K154A): T1 sequence (P23979 24-483 isoform P23979-2 limits assumed) with K131A

[5] = tested on: Q150A – K153A mutant mouse 5-HT3ASRs; experiment: [^3H]granisetron saturation binding, Q150A – K153A receptors

Bmax (+ protease inhibitor) (wildtype mouse 5-HT3ASR; membranes prepared in the presence of protease inhibitor cocktail): 3.1 ± 0.11 pmoles/mg protein
Hill coefficient (n) (wildtype mouse 5-HT3ASR; ± SE): 1 ± 0.12
Bmax [1]: 0.32 ± .04 pmol/mg protein
Hill coefficient (n) [1]: 1.3 ± 0.22
Bmax [2]: 1.1 ± .04 pmol/mg protein
Hill coefficient (n) [2]: 0.97 ± 0.13
Bmax [3]: 0.56 ± .09 pmol/mg protein
Hill coefficient (n) [4]: 1.51 ± 0.17
decrease in binding affinity (increased Kd), mutant vs wildtype [5]: 6 – 8 fold
Compound: CN1C2CCCC1CC(NC(=O)c1nn(C)c3ccccc13)C2 (centres unmarked) [[^3H]granisetron]
Bmax (wildtype mouse 5-HT3ASR; absence of protease inhibitor, ± SE): 3.2 ± 0.13 pmol/mg protein and 3.2 ± .13 pmol/mg protein
Bmax [4]: 0.30 pmol/mg protein and 0.30 ± .08 pmol/mg protein

— paper PMC117120 (BMC Biochemistry, 2002)
